The target of the assay is T1, Atm1p (Saccharomyces cerevisiae, UniProt P40416).
T1 sequence (P40416 27-690): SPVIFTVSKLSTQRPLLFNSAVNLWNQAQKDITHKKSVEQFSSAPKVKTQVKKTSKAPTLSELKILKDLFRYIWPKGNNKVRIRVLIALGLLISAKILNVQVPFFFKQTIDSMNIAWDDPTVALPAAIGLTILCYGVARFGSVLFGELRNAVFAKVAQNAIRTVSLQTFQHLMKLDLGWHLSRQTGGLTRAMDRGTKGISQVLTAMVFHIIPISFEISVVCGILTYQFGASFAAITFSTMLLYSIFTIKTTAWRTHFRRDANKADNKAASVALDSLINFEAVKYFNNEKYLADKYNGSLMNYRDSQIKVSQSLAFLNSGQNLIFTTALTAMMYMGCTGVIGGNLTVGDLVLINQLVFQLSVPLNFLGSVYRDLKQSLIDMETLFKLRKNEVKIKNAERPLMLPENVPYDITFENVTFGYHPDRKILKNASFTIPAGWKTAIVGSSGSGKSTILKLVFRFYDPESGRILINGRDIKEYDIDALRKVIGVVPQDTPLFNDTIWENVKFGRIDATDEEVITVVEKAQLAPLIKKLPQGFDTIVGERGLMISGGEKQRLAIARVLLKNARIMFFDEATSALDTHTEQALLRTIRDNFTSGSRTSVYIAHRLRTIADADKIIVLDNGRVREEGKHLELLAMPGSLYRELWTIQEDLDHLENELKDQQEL
In words: titration of labeled cluster to Atm1p. The format is binding. To be noted: labelled compound.

Results on 1 substance are retold here after article PMC4522903 (Chemical communications (Cambridge, England), 2015).

Broadly, the Kd is the concentration at which binding is half-saturated. Low values mean tighter binding, high ones weaker binding.

In turn, “fluorescein-labeled glutathione [2Fe-2S] cluster” showed a dissociation constant (Kd) of 118 ± 11 µM.
